Assay results published in patent publication US11730707B2, “Compounds for treating von Hippel-Lindau disease” (CONSEJO SUPERIOR DE INVESTIGACIONES CIENTÍFICAS, priority 2017, dated 2023).
Entries after “also recorded” stand apart in the source; their conditions may differ. Structures can show the parent of a compound that is named as a salt.

How the values were obtained:
[1] = test system: β2-adrenergic receptor over β1-adrenergic receptor; conditions: reported in literature; cited from earlier work
[2] = test system: HIF transcriptional activity in HeLa 9XHRE cells; experiment: HRE-luciferase reporter assay under DFO chemical hypoxia; assay type: cell-based, human; conditions: for luciferase activity induced by hypoxia (HIF transcriptional activity): 100 μM, 100 μM DFO
From the text: Angiogenesis is largely dependent of HIF transcription program, triggered in the presence of hypoxic condition, or as in the case of Von Hippel Lindau haemangioblastoma cells, due to the lack of VHL protein in charge of targeting HIF protein for its proteasome processing under normoxic conditions in wild type cells. A special peculiarity of hemangioblastoma cells, and clear cell kidney carcinoma cells, is that they constitutively express HIF protein, which is active, and is translocated to nucleus where it may bind and activates its gene targets such as: VEGF, PDGF, EPO, endoglin, several metalloproteases, carbonic anhydrase, Glut-1 and so on.

[3] = test system: VHL-derived hemangioblastoma cells (hemangiospheres); experiment: Hemangiospheres formation and culture; assay type: cell-based, human; conditions: 100 μM, 7 days
Protocol: VHL-derived hemangioblastoma cells were grown in suspension in phenol red free DMEM:F-12 medium with GlutaMAX, supplemented with B27, 20 ng/ml EGF, 20 ng/ml bFGF and 1% penicillin/streptomycin at 37° C. in 5% CO2. Single cell suspensions were plated at a density of 50.000 cells/ml in 75 cm^2 ultralow attachment flasks (Corning).

[4] = test system: 786-O Vhl−/− ccRCC xenograft; assay type: in vivo; conditions: 10 mg/Kg daily intraperitoneally; 50-60 days after the cell inoculation
Protocol: FIG. 10. Xenografts of 786-O Vhl−/− human ccRCC cells in mice. Male 7-8 weeks old NOD scid gamma (NSG) mice were injected in the dorsal flank with a single cell suspension of 10^6 786-O cells. When tumor size reached 100 mm3 volume, mice were randomly divided in 3 groups, of 9/10 mice each. […] Tumor size was measured by a caliper every 2-3 days and volumes were calculated following the formula: shortest^2×largest×0.52. Mice were sacrificed when tumor volume average of the control group reached an end point established based on ethical procedures. Arrow marks the beginning of the treatment.
Male 7-8 weeks old NOD scid gamma (NSG) mice were injected in the dorsal flank with a single cell suspension of […] 786-O cells. When tumor size reached 100 mm^3 volume, mice were randomly divided in 3 groups, of 9/10 mice each. […] Tumor size was measured by a caliper every 2-3 days and volumes were calculated following the formula: shortest 2×largest×0.52. Mice were sacrificed when tumor volume average of the control group reached an end point established according to ethical procedures

[5] = test system: primary cultures hemangioblastomas from patients (Vhl−/−); experiment: Cell viability measure (CellTiter-Glo); assay type: cell-based, human; conditions: for viability (ATP content) of the VHL−/− cells: 72 hours, hemangioblastoma primary cultures 18, 14 and 786-O vs HUVEC, HMEC (FIG. 9)
Protocol: (§1) Cell viability (cell proliferation, ATP content) was determined using the CellTiter-Glo Luminescent Cell Viability Assay kit (Promega) according to the supplier's instructions. […] Cell lysis was induced in an orbital shaker for 2 min, and then plates were incubated at room temperature for 10 min to stabilize the luminescent signal. Luminescence was measured using a GlomaxMultidetection System (Promega) Readings were normalized to control (100%).

[6] = test system: HUVEC migration; experiment: Wound healing assay; assay type: cell-based, human; conditions: 100 μM, 6 hours
Protocol: FIG. 5. […] A. Functional in vitro tests for angiogenesis include “wound-healing” or plate-scratch, to follow the migration capacity of endothelial cells after short times. When a confluent monolayer is disrupted with the tip of a micropipette to create a discontinuity, endothelial cells normally migrate to cover the discontinuity “wound the healing” in a short time, depending on the size of the “wound” but normally, less than 8 hours. This test measures the migration by taking pictures at different times from the moment the wound is created. Only the final picture after 6 hours is shown. The migrated distance is quantified, and in the following graph the evolution is shown.
(§2) In vitro-scratched wounds were created by scraping confluent HUVEC-1 monolayers in P-24 plate wells with sterile disposable pipet tips.

[7] = test system: BAX and CASP9 mRNA in hemangioblastoma cells; experiment: Real-time RT-PCR of proapoptotic genes; assay type: cell-based, human; conditions: 100 μM, 72 h; HB26 and HB11 hemangioblastoma cell culture
Protocol: Total cellular RNA was extracted from hemangioblastoma cells using a Nucleo Spin RNA kit (Macherey-Nagel, Düren, Germany). One microgram of total RNA was reverse-transcribed in a final volume of 20 μl with the First Strand cDNA Synthesis Kit (Roche, Mannheim, Germany) using random primers. SYBR Green PCR system (BioRad, Hercules, Calif., USA) was used to carry out real-time PCR with an iQ5 system. Primers used for qPCR were: […]

[8] = test system: HUVEC; experiment: Cell viability measure (CellTiter-Glo); assay type: cell-based, human
Protocol: as §1, with “Endothelial cell lines (HUVECs and HMECs), human ccRCC Vhl−/− 786-O cell line, and primary cultures hemangioblastomas from patients (Hb14 and 18) were seeded in triplicate onto a 96-well plate (2×10^3 per well). […] Cell viability” for “Cell viability”

[9] = test system: HMEC; experiment: Cell viability measure (CellTiter-Glo); assay type: cell-based, human
Protocol: as §1, with “Endothelial cell lines (HUVECs and HMECs), human ccRCC Vhl−/− 786-O cell line, and primary cultures hemangioblastomas from patients (Hb14 and 18) were seeded in triplicate onto a 96-well plate (2×10^3 per well). […] Cell viability” for “Cell viability”

[10] = test system: HUVECs tubulogenesis; experiment: Tube formation assay on Matrigel; assay type: cell-based, human; conditions: 100 μM, 3 hours
From the text: FIG. 6. […] Tubulogenesis is another in vitro test for angiogenesis. Endothelial cells cultured on matrigel have the property of building cell tube-like structures, which mimic the “vessels” structure. […] B. The number of closed cells (density network) is quantified and averaged from 5 different fields in each case. Bar histograms represent the mean±SD.
as §2

[11] = test system: human ccRCC Vhl−/− 786-O cell line; experiment: Cell viability measure (CellTiter-Glo); assay type: cell-based; conditions: 72 hours, 0 to 250 μM
Protocol: as §1, with “Endothelial cell lines (HUVECs and HMECs), human ccRCC Vhl−/− 786-O cell line, and primary cultures hemangioblastomas from patients (Hb14 and 18) were seeded in triplicate onto a 96-well plate (2×10^3 per well). […] Cell viability” for “Cell viability”

[12] = test system: hemangioblastoma primary cell cultures from VHL patients; conditions: both at 100 μM, 72 hours
Protocol: HeLa 9XHRE cells were stably transfected with a HREluc reporter carrying nine copies in tandem of the hypoxia responsive element (HRE) followed by luciferase gene, and were cultured in DMEM (Dulbecco's Modified Eagle Medium, Gibco, Grand Island, N.Y., USA) supplemented with 10% fetal bovine serum (FBS; Gibco). To induce hypoxic conditions, HeLa cells were cultured with 100 μM desferrioxamine (DFO) (chemical hypoxia). […] Primary cultures of CNS hemangioblastoma were obtained according to the previously described by Albiñana et al., Orphanet J Rare Diseases, 2015, 10: 118.
The viability of hemangioblastoma and HeLa 9XHRE cells was measured with a CellTiter-Glo Luminescent Cell Viability Assay (Promega, Madison, Wis., USA). This is a homogeneous method to determine the number of viable cells in culture based on quantitation of the ATP present, which signals the presence of metabolically active cells. […] After treatment, plates were equilibrated to room temperature for 30 min before the addition of 100 μl of Cell Titer-Glo reagent (Lysis buffer, Ultra-Glo Recombinant Luciferase, Luciferine and Mg2+). Luminescence was measured using a Glomax Multidetection System (Promega).

[13] = test system: retina hemangioblastomas; conditions: cited from earlier work

In the case of `COc1ccc(OC)c(C(O)C(C)NC(C)(C)C)c1` (racemic) [butoxamine, DL-erythro-α-(2,5-dimethoxyphenyl)-β-t-butyl aminopropanol hydrochloride], the β2/β1 selectivity ratio [1] is given as “at least 17”.
With `CC(C)NCC(O)COc1ccc(CC(N)=O)cc1` (stereo not shown) [Atenolol] the “luciferase activity induced by hypoxia (HIF transcriptional activity)” value (“luciferase activity induced by hypoxia” for short) [2] was “less significant” and the “luciferase activity induced by hypoxia” value ([2]; listed as atenolol) was “hardly reduced the hypoxia stimulation”.
For `Cc1ccc(OCC(O)C(C)NC(C)C)c2c1CCC2` [ICI 118,551, erythro-D,L-1(methylinden-4-yloxy)-3-isopropylaminobutan-2-ol], the hemangiosphere formation [3] was “hemangiospheres are disrupted; also recorded: the spheres appear disaggregated”, the “decrease of the size tumor versus vehicle treated mice” value [4] was “around 30%” and the “viability (ATP content) of the VHL−/− cells” value [5] was “decrease, in a dose-dependent manner and with higher specificity”. The viability at 100 µM ([5]; Homo sapiens, Haemangioblastoma (HB) cells, 100 μM (FIG. 11)) was 20%, the “cell migration (closure of the discontinuity)” value [6] was “delay the closure of the discontinuity; also recorded: delay cell migration” and the “Bax mRNA expression (RT-qPCR)” value [7] was “significantly upregulated; also recorded: increased”. For the same compound, the “Caspase 9 mRNA expression (RT-qPCR)” value [7] was “significantly upregulated; also recorded: increased”, the decrease in viability ([8]; 100 μM (FIG. 11)) was 80% and the LD50 ([8]; 72 hours, 0 to 250 μM) was “around 150 μM”. For the same compound, the decrease in viability ([9]; HMEC-1, 100 μM (FIG. 11)) was 55%, the LD50 ([9]; HMEC, 72 hours, 0 to 250 μM) was “around 150 μM” and the “tubulogenesis (number of closed structures)” value [10] was “dramatically decreased; also recorded: significantly inhibit the tubulogenesis”. For the same compound, the LD50 [11] was 100 µM, the β2/β1 selectivity ratio [1] was “at least 50” and the “luciferase activity induced by hypoxia” value [2] was “reduced practically to “0””. The “luciferase activity induced by hypoxia” value ([2]; listed as ICI) was “prevented hypoxia stimulation”, the “luciferase activity induced by hypoxia” value ([2]; listed as ICI118,551) was “extremely reduced” and the “hypoxia stimulation induced by DFO (relative luciferase activity)” value ([2]; 50 or 100 μMolar, 24 h, DFO 100 μMolar simultaneously) was “inhibits the hypoxia stimulation induced by DFO”. For the same compound, the “effect on HIF luciferase activity compared with propranolol” value ([2]; equal dose) was “clearly superior to propranolol” and the “effect on viability compared with propranolol” value [12] was “superior to propranolol”.
With `CC(C)NCC(O)COc1cccc2ccccc12` (stereo not shown) [Propranolol] the hemangiosphere formation [3] was “hemangiospheres are disrupted; also recorded: the spheres appear disaggregated”, the “decrease of the size tumor versus vehicle treated mice” value [4] was “around 30%” and the “viability (ATP content) of the VHL−/− cells” value [5] was “decrease, in a dose-dependent manner and with higher specificity”. The “cell migration (closure of the discontinuity)” value [6] was “delay the closure of the discontinuity; also recorded: delay cell migration”, the “tubulogenesis (number of closed structures)” value [10] was “dramatically decreased; also recorded: significantly inhibit the tubulogenesis” and the “luciferase activity induced by hypoxia” value [2] was “dampened; also recorded: prevented hypoxia stimulation”. The “luciferase activity induced by hypoxia” value ([2]; listed as propranolol) was “extremely reduced”, the “tumor growth during the clinical trial” value ([13]; 120 mg a day, 12 months, 7 VHL patients) was “did not grow in any case” and the visual acuity ([13]; 120 mg a day, 12 months) was “in some cases visual acuity increased”. For the same compound, the side effect ([13]; 120 mg a day) was “Low blood pressure” and the “exudates from the hemangioblastomas” value ([13]; 2 cases, between 3 and 6 months of treatment) was “disappeared completely”.
